What all share (type): in vivo, Zebrafish (Danio rerio)
The test system of test [1] is larval zebrafish. As to the kind of experiment: AITC aversion assay (chemical attraction/aversion, AITC-infused agarose). The conditions noted are these: AITC 100 mM in agarose. An excerpt: Whether the effects of AS1 extended beyond noxious temperature sensation or could also impact other somatosensory modalities was next explored. To accomplish this, a chemical attraction/aversion assay where a thin layer of agarose was deposited along the edges of a square arena (Jordi et al., Sci. Adv. 2018; 4:1-15) were adapted. Along one wall, the agarose contained the chemical to be tested, while the other three walls were lined with control agarose. It was anticipated that a chemical gradient would be established as chemical diffused from the agarose into the surrounding water. Larvae were pre-incubated in either vehicle or AS1 and then added to the arena and the distance of each larva from the chemical-infused agarose was measured. In control experiments where all four walls of the arena were lined with agarose only, AS1 and vehicle-treated larvae were dispersed evenly throughout the arena (FIG. 3). […] When the nociceptive chemical AITC (100 mM, 10,000× maximal effective dose) was tested, vehicle-treated larvae swam away from the AITC source.
Chemical attraction/aversion assays. The agarose attraction/aversion assay was adapted from previously described experiments (Jordi et al., Sci. Adv. 2018; 4:1-15). For the AITC aversion assay, AITC and DMSO were added to molten 0.8% agarose to achieve a final concentration of 100 mM AITC and 2% DMSO. For the AS1 attraction/aversion assay, AS1 and DMSO were added to 0.8% molten agar to achieve final concentrations of 50 mM and 2%, respectively. To construct the test chambers, the lids of 10×10 cm square petri dishes (insert cat #and company) were lined on four sides with either the test (chemical-containing) or plain agarose (300 μL per side) and allowed to solidify. For all experiments, 30-40 randomly selected 6 dpf zebrafish were caught with a 10 mL pipette pump (Bel-Air Products, cat #: 13683C) equipped with a glass wide-bored Pasteur pipet (Fisher Scientific, cat #: 22-037-540) and deposited into a standard 10 cm diameter petri dish (Fisher Scientific, cat #: 07-202-031). As much E2 media as possible was carefully removed using the same pipette. For single incubation experiments, 30 mL of 1× solutions of the control or test chemical was added to each petri dish, and fish were incubated for 10 minutes at 28.5° C. For double incubation experiments, 15 mL of 1× solutions containing control (DMSO) or test chemicals was added to the larvae-containing petri dish. Following a ten minute incubation, 15 mL of the second incubation solution (1× control or test chemical +/−2× AS1) was added to the petri dish, and the fish were incubated for a second ten minute block. The final concentration of DMSO in all solutions was 1%. In all double-incubation experiments, the final concentration of AS1 was 5 μM unless otherwise noted. After completion of the last incubation period, the contents of each petri dish were poured into separate agarose-lined square dishes. Swimming behavior was immediately recorded for 20 minutes using the same high-definition camcorder in the thermal preference assays.

In test [2] the test system is larval zebrafish. As to the kind of experiment: Thermal preference assay (28.5° C. vs 37.5° C.), non-sensitized. The procedure:
Thermal preference assay. […] Once an entire plate was loaded with fish, the appropriate incubation solution was added. […] Following incubation in all experiments, the choice testing plate was transported to a dual solid-state heat/cool plate (AHP-1200° C. P; Teca) and centered such that half of each arena was positioned over each side of the heat/cool plate. […] Locomotor behavior was recorded using a Canon high-definition video camcorder suspended at a fixed position above the choice testing plate. Each trial was four minutes in duration.
For single-incubation assays (e.g. testing single chemicals), larval zebrafish were caught in 100 μL E2 media and 100 μL of the control (2% DMSO) or test chemical at 2× concentration was added to each well to achieve the final desired concentration. […] The final DMSO concentration in all solutions was 1%.

In a further test the test system is trigeminal neurons. Nature of the test: CaMPARI neuronal activity assay. As to conditions: 5 μM AS1; 28.5° C. or 37.5° C. An excerpt: Brain regions associated with dopaminergic circuitry are specifically activated in the concurrent presence of AS1 and noxious stimuli. It was next sought to determine in an unbiased manner where in the zebrafish nervous system AS1 was exerting its effects by examining neuronal activity in the context of noxious stimuli. […] Many analgesics can act upon multiple different levels of pain transduction circuitry. For example, MORs can be found upon peripheral somatosensory neurons, spinal cord neurons, and numerous neuronal populations in the brain, and both exogenous and endogenous opioids can modulate the activity of any of these neurons (Corder et al., Annu. Rev. Neurosci. 2018; 41: 453-473). To investigate whether peripheral somatosensory neurons were also influenced by AS1, a neuronal activity assay upon transgenic zebrafish expressing the genetically-encoded calcium indicator CaMPARI in all neurons was performed. This fluorescent protein permanently photoconverts from green to red in the presence of a 405 nm light and high calcium (a proxy for neuronal activity), allowing “snapshots” of neuronal activity at a single time point (Fosque et al., Science. 2015; 347(6223):755-760). Fish were exposed to conditions of 28.5° C. or 37.5° C. with or without AS1 in the presence of a blue light, and then the trigeminal ganglia (TG) were surveyed for photoconverted neurons. […]

The mark [3] stands for this setting: 28.5 vs 37.5° C., dose-response 0-5 μM.

On to `CC(C)c1ccc(C(=O)Nc2ccncc2)cc1` [AS1, 4-propan-2-yl-N-pyridin-4-ylbenzamide], for which the entries for the “attraction/aversion to AITC source” value in the test on larval zebrafish [1] (1 μM AS1), in the test with larval zebrafish [1] (2.5 μM AS1) and with larval zebrafish [1] (5 μM AS1) were “unable to induce attraction to AITC”, “largely replicated the effects of 5 μM AS1” and “strongly preferred to be near the AITC source”, respectively. Besides, the “zone-dependent locomotor activity (swimming velocity)” value in the test with larval zebrafish [2] (28.5 vs 37.5° C. zones, compared to vehicle-treated larvae) is “inverted zone-dependent locomotor activity”. Further, the “concentration that eliminates preference for either zone” value in the test on larval zebrafish [2] (setting [3]) stood at 1.25 µM. The “concentrations that induce preference for the 37.5° C. zone” value in the test with larval zebrafish [2] (setting [3]) was more than 2.5 µM. Besides, in the test on larval zebrafish [2] (28.5° vs 37.5° C., 5 μM AS1 (highest dose)), the “preference in acute heat aversion” value is on record as “evoked strong preference for the nociceptive stimulus”. In the test with larval zebrafish [2] (temperature preference 28.5° C. vs 37.5° C., larval zebrafish), the “Reverses 28.5° C. Choice?” value is recorded as “Yes”. The “Number of photoconverted trigeminal neurons, AS1-treated vs control” value with trigeminal neurons is given as “No significant difference”.

The values are drawn from patent US20250177366A1, “COMPOSITIONS AND METHODS FOR ALLEVIATING PAIN AND REDUCING ADVERSIVENESS OF STIMULI” (UNIVERSITY OF WASHINGTON, priority 2021, published 2025).
